{"source": "patent US6407250B1", "about": "“Interphenylene 7-oxabicyclic [2.2.1] heptane oxazoles as prostaglandin F2a antagonists” (Allergan Sales, Inc., priority 2000, dated 2002)", "target": "T1, human FP receptor (Homo sapiens, UniProt P43088)", "T1 construct": "expressed in transfected cells", "T1 sequence (P43088 whole entry)": "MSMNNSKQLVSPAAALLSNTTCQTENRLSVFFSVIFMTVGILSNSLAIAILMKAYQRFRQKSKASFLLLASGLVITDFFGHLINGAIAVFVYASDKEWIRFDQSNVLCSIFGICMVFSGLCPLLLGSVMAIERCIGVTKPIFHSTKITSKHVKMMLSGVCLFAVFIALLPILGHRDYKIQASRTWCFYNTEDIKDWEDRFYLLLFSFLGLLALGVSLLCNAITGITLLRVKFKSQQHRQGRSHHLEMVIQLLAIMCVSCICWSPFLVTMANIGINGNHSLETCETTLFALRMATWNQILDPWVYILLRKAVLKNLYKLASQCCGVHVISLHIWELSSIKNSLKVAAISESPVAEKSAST", "assay": "Ca2+ signaling: antagonism of the 17-phenyl PGF2α response in HEK cells stably transfected with the human FP receptor", "format": "cell-based", "conditions": "compared with the compound of U.S. Pat. Nos. 5,100,889 and 5,153,327", "procedure": "The compound of Example 22 was tested for PGF2αantagonist activity as follows:\nHEK cells stably transfected with the human FP receptor were removed from the culture flasks by approximately 1 min treatment with trypsin 0.05%/0.53 mM EDTA in HBSS (Gibco, Grand Island, N.Y.) at 37° C. Proteolytic activity was arrested by adding 5 ml of 10% fetal bovine serum in DMEM. The cells were consecutively washed in Hank's BSS and medium containing 140 mM NaCl, […], 1 mM MgCl2, 1.5 mM CaCl2, 10 mM HEPES: TRIS, 5 mM glucose, 5 mM Na pyruvate, 0.1% bovine serum albumin at pH 7.4: centrifugation for the washes was performed for 15 minutes at 200 g at room temperature. Cells were counted, resuspended in the above medium and incubated with 2×10^−6 M Fura 2/acetoxymethyl ester in a shaking water bath for 30 minutes at 37° C. The cells were subsequently washed in medium as above and resuspended at a concentration of 2×10^6 cells ml^−1. Aliquots of 0.5 ml cell suspension were then added to autocap microtubes to provide 10^6 cells per experimental determination of intracellular free Ca^2+concentration ([Ca^2+]i).\nFluorescence was measured in a Perkin-Elmer LS-5 fluorescence spectrophotometer at excitation and emission wavelengths of 340 and 492 nm, respectively, with both slits at 10 nm. […]"}
{"compound": "O=C(O)CCc1ccc(F)cc1C[C@@H]1[C@H](c2nc(C(=O)NCCCCC3CCCCC3)co2)[C@H]2CC[C@H]1O2", "note": "[Example 22, 3-(2-{(1R, 2R, 3S, 4R)-3-[4-(4-Cyclohexyl-butylcarbamoyl)-oxazol-2-yl]-7-oxa-bicyclo[2.2.1]hept-2-ylmethyl}-4-fluoro-phenyl)-propionic acid]", "values": [{"measurement": "PGF2α antagonist activity (comparison in words)", "value": "greater than the compound disclosed in U.S. Pat. Nos. 5,100,889 and 5,153,327"}]}
{"compound": "COC(=O)CCc1ccccc1CC1C2CCC(O2)C1c1nc(C(=O)NCCCCC2CCCCC2)co1", "note": "(centres unmarked)", "values": [{"measurement": "PGF2α antagonist activity (comparison in words)", "value": "much less active than the corresponding acid"}]}
